Measured values reported in PubChem BioAssay AID2060891 (Molecular Pharmacology Branch, DTP, NCI, 2025).

System: K98450-129-R-PDC complex spheroid growth, percent test/control
Experiment: Anticancer human tumor K98450-129-R-PDC patient-derived colon adenocarcinoma cell line growth inhibition [RAS]
Conditions: curve of first compound; second compound 0.00316 µM
In short: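 Agents were tested in combination matrices in half-log decrements from a top concentration at or near clinical Cmax (10 microM if undetermined). Targets were multi-cell spheroids of tumour lines plus HUVEC and MSC stromal cells.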
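Also: spheroids exposed to agents for seven days before the viability readout.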

Which IC50 does the source give for CC(C)NCC(C(=O)N1CCN(c2ncnc3c2C(C)CC3O)CC1)c1ccc(Cl)cc1 (stereo unspecified) + C=CC(=O)N1CCN(c2nc(OCC3CCCN3C)nc3c(F)c(-c4nc(N)cc(C)c4C(F)(F)F)c(Cl)cc23)C(C)C1 here?
The IC50 was over 10000 nM.

How did the IC50 turn out when CC(C)n1nc(-c2ccc3oc(N)nc3c2)c2c(N)ncnc21 + C=CC(=O)N1CCN(c2nc(OCC3CCCN3C)nc3c(F)c(-c4nc(N)cc(C)c4C(F)(F)F)c(Cl)cc23)C(C)C1 was run?
The IC50 was over 100 nM.

CC1(O)CCCC1n1c(=O)c(C(F)F)cc2cnc(NC3CCN(S(C)(=O)=O)CC3)nc21 (stereo unspecified) + C=CC(=O)N1CCN(c2nc(OCC3CCCN3C)nc3c(F)c(-c4nc(N)cc(C)c4C(F)(F)F)c(Cl)cc23)C(C)C1 was tested. Which IC50 did it give?
The IC50 was 8350 nM.

With CCN1CCN(Cc2ccc(Nc3ncc(F)c(-c4cc(F)c5nc(C)n(C(C)C)c5c4)n3)nc2)CC1 + C=CC(=O)N1CCN(c2nc(OCC3CCCN3C)nc3c(F)c(-c4nc(N)cc(C)c4C(F)(F)F)c(Cl)cc23)C(C)C1 as the compound, how does the IC50 read?
The IC50 was 512 nM.

C[C@@H](NC(=O)c1ncnc(N)c1Cl)c1ncc(C(=O)Nc2cc(C(F)(F)F)c(Cl)cn2)s1 + C=CC(=O)N1CCN(c2nc(OCC3CCCN3C)nc3c(F)c(-c4nc(N)cc(C)c4C(F)(F)F)c(Cl)cc23)C(C)C1 was tested. Which IC50 did it give?
The IC50 was over 10000 nM.

Same assay, conditions: curve of first compound; second compound 0.01 µM

With CC(C)NCC(C(=O)N1CCN(c2ncnc3c2C(C)CC3O)CC1)c1ccc(Cl)cc1 (stereo unspecified) + C=CC(=O)N1CCN(c2nc(OCC3CCCN3C)nc3c(F)c(-c4nc(N)cc(C)c4C(F)(F)F)c(Cl)cc23)C(C)C1 as the compound, how does the IC50 read?
The IC50 was over 10000 nM.

For CC(C)n1nc(-c2ccc3oc(N)nc3c2)c2c(N)ncnc21 + C=CC(=O)N1CCN(c2nc(OCC3CCCN3C)nc3c(F)c(-c4nc(N)cc(C)c4C(F)(F)F)c(Cl)cc23)C(C)C1, which IC50 is on record?
The IC50 was over 100 nM.

Which IC50 does the source give for CC1(O)CCCC1n1c(=O)c(C(F)F)cc2cnc(NC3CCN(S(C)(=O)=O)CC3)nc21 (stereo unspecified) + C=CC(=O)N1CCN(c2nc(OCC3CCCN3C)nc3c(F)c(-c4nc(N)cc(C)c4C(F)(F)F)c(Cl)cc23)C(C)C1 here?
Its IC50 is 2760 nM.

CCN1CCN(Cc2ccc(Nc3ncc(F)c(-c4cc(F)c5nc(C)n(C(C)C)c5c4)n3)nc2)CC1 + C=CC(=O)N1CCN(c2nc(OCC3CCCN3C)nc3c(F)c(-c4nc(N)cc(C)c4C(F)(F)F)c(Cl)cc23)C(C)C1 was tested. Which IC50 did it give?
Its IC50 is 177 nM.

How did the IC50 turn out when C[C@@H](NC(=O)c1ncnc(N)c1Cl)c1ncc(C(=O)Nc2cc(C(F)(F)F)c(Cl)cn2)s1 + C=CC(=O)N1CCN(c2nc(OCC3CCCN3C)nc3c(F)c(-c4nc(N)cc(C)c4C(F)(F)F)c(Cl)cc23)C(C)C1 was run?
Its IC50 is over 10000 nM.

Same assay, conditions: curve of first compound; second compound 0.0316 µM

For CC(C)NCC(C(=O)N1CCN(c2ncnc3c2C(C)CC3O)CC1)c1ccc(Cl)cc1 (stereo unspecified) + C=CC(=O)N1CCN(c2nc(OCC3CCCN3C)nc3c(F)c(-c4nc(N)cc(C)c4C(F)(F)F)c(Cl)cc23)C(C)C1, which IC50 is on record?
Its IC50 is over 10000 nM.

With CC(C)n1nc(-c2ccc3oc(N)nc3c2)c2c(N)ncnc21 + C=CC(=O)N1CCN(c2nc(OCC3CCCN3C)nc3c(F)c(-c4nc(N)cc(C)c4C(F)(F)F)c(Cl)cc23)C(C)C1 as the compound, how does the IC50 read?
The IC50 was 17.8 nM.

With CC1(O)CCCC1n1c(=O)c(C(F)F)cc2cnc(NC3CCN(S(C)(=O)=O)CC3)nc21 (stereo unspecified) + C=CC(=O)N1CCN(c2nc(OCC3CCCN3C)nc3c(F)c(-c4nc(N)cc(C)c4C(F)(F)F)c(Cl)cc23)C(C)C1 as the compound, how does the IC50 read?
Its IC50 is 696 nM.

With CCN1CCN(Cc2ccc(Nc3ncc(F)c(-c4cc(F)c5nc(C)n(C(C)C)c5c4)n3)nc2)CC1 + C=CC(=O)N1CCN(c2nc(OCC3CCCN3C)nc3c(F)c(-c4nc(N)cc(C)c4C(F)(F)F)c(Cl)cc23)C(C)C1 as the compound, how does the IC50 read?
Its IC50 is 65.7 nM.

With C[C@@H](NC(=O)c1ncnc(N)c1Cl)c1ncc(C(=O)Nc2cc(C(F)(F)F)c(Cl)cn2)s1 + C=CC(=O)N1CCN(c2nc(OCC3CCCN3C)nc3c(F)c(-c4nc(N)cc(C)c4C(F)(F)F)c(Cl)cc23)C(C)C1 as the compound, how does the IC50 read?
Its IC50 is over 10000 nM.

Same assay, conditions: curve of first compound; second compound 0.1 µM

How did the IC50 turn out when CC(C)NCC(C(=O)N1CCN(c2ncnc3c2C(C)CC3O)CC1)c1ccc(Cl)cc1 (stereo unspecified) + C=CC(=O)N1CCN(c2nc(OCC3CCCN3C)nc3c(F)c(-c4nc(N)cc(C)c4C(F)(F)F)c(Cl)cc23)C(C)C1 was run?
Its IC50 is over 10000 nM.

CC(C)n1nc(-c2ccc3oc(N)nc3c2)c2c(N)ncnc21 + C=CC(=O)N1CCN(c2nc(OCC3CCCN3C)nc3c(F)c(-c4nc(N)cc(C)c4C(F)(F)F)c(Cl)cc23)C(C)C1 was tested. Which IC50 did it give?
The IC50 was 1.5 nM.

How did the IC50 turn out when CC1(O)CCCC1n1c(=O)c(C(F)F)cc2cnc(NC3CCN(S(C)(=O)=O)CC3)nc21 (stereo unspecified) + C=CC(=O)N1CCN(c2nc(OCC3CCCN3C)nc3c(F)c(-c4nc(N)cc(C)c4C(F)(F)F)c(Cl)cc23)C(C)C1 was run?
Its IC50 is 229 nM.

CCN1CCN(Cc2ccc(Nc3ncc(F)c(-c4cc(F)c5nc(C)n(C(C)C)c5c4)n3)nc2)CC1 + C=CC(=O)N1CCN(c2nc(OCC3CCCN3C)nc3c(F)c(-c4nc(N)cc(C)c4C(F)(F)F)c(Cl)cc23)C(C)C1 was tested. Which IC50 did it give?
The IC50 was 20.6 nM.

How did the IC50 turn out when C[C@@H](NC(=O)c1ncnc(N)c1Cl)c1ncc(C(=O)Nc2cc(C(F)(F)F)c(Cl)cn2)s1 + C=CC(=O)N1CCN(c2nc(OCC3CCCN3C)nc3c(F)c(-c4nc(N)cc(C)c4C(F)(F)F)c(Cl)cc23)C(C)C1 was run?
Its IC50 is over 10000 nM.

Same assay, conditions: curve of first compound; second compound 0.316 µM

CC(C)NCC(C(=O)N1CCN(c2ncnc3c2C(C)CC3O)CC1)c1ccc(Cl)cc1 (stereo unspecified) + C=CC(=O)N1CCN(c2nc(OCC3CCCN3C)nc3c(F)c(-c4nc(N)cc(C)c4C(F)(F)F)c(Cl)cc23)C(C)C1 was tested. Which IC50 did it give?
The IC50 was under 31.6 nM.

For CC(C)n1nc(-c2ccc3oc(N)nc3c2)c2c(N)ncnc21 + C=CC(=O)N1CCN(c2nc(OCC3CCCN3C)nc3c(F)c(-c4nc(N)cc(C)c4C(F)(F)F)c(Cl)cc23)C(C)C1, which IC50 is on record?
Its IC50 is under 0.316 nM.

For CC1(O)CCCC1n1c(=O)c(C(F)F)cc2cnc(NC3CCN(S(C)(=O)=O)CC3)nc21 (stereo unspecified) + C=CC(=O)N1CCN(c2nc(OCC3CCCN3C)nc3c(F)c(-c4nc(N)cc(C)c4C(F)(F)F)c(Cl)cc23)C(C)C1, which IC50 is on record?
Its IC50 is under 31.6 nM.

For CCN1CCN(Cc2ccc(Nc3ncc(F)c(-c4cc(F)c5nc(C)n(C(C)C)c5c4)n3)nc2)CC1 + C=CC(=O)N1CCN(c2nc(OCC3CCCN3C)nc3c(F)c(-c4nc(N)cc(C)c4C(F)(F)F)c(Cl)cc23)C(C)C1, which IC50 is on record?
The IC50 was under 3.16 nM.

For C[C@@H](NC(=O)c1ncnc(N)c1Cl)c1ncc(C(=O)Nc2cc(C(F)(F)F)c(Cl)cn2)s1 + C=CC(=O)N1CCN(c2nc(OCC3CCCN3C)nc3c(F)c(-c4nc(N)cc(C)c4C(F)(F)F)c(Cl)cc23)C(C)C1, which IC50 is on record?
Its IC50 is under 31.6 nM.

Same assay, conditions: curve of first compound; second compound 1 µM

For CC(C)NCC(C(=O)N1CCN(c2ncnc3c2C(C)CC3O)CC1)c1ccc(Cl)cc1 (stereo unspecified) + C=CC(=O)N1CCN(c2nc(OCC3CCCN3C)nc3c(F)c(-c4nc(N)cc(C)c4C(F)(F)F)c(Cl)cc23)C(C)C1, which IC50 is on record?
The IC50 was under 31.6 nM.
